According to patent publication US20160176924A1, “MODIFIED PEPTIDES AS POTENT INHIBITORS OF THE PSD-95/NMDA RECEPTOR INTERACTION” (priority 2008, published 2016):
Ends that are not written are not given here. Peptide text beside a SMILES is read from it.

Legend:
PDZ1-2 tandem of PSD-95 = target: T1, PDZ1-2 tandem of PSD-95 (Homo sapiens, UniProt P78352); assay: FP heterologous competition binding assay; settings: mean ± SEM
T1 construct: PDZ1-2 (residues 61-249) tandem; made in house; host or cells: E. coli BL21-DE3 pLysS
From the text: (§1) Determined IC50 values may be converted to Ki values.^5 Suitable fluorophores include either 5-FAM or Cy5, which may be coupled to a tripeptide (KSG or CSG) linker attached to the N-terminus of the undecapeptide, to give 5-FAM-NR2B, Cy5-NR2B, 5-FAM-CRIPT and Cy5-CRIPT. The 5-FAM fluorophore may be attached to the undecapeptides by coupling with HATU. The Cy5 fluorophore may be conjugated to the undecapeptides by coupling Cy5-maleimide to the cysteine side chain of the tripeptide sequence CSG attached to the N-terminus of the peptide, as detailed in the Methodology section.
(§2) To measure the affinities between non-fluorescent peptides and PDZ domains, heterologous competition bindings assay were performed. This was done by adding increasing concentrations of peptide to a fixed concentration of Cy5-NR2B, 5-FAM-NR2B, Cy5-CRIPT or 5-FAM-CRIPT (50 nM) and PDZ (20 μM for PDZ1, 3 μM for PDZ2 and 1-2 and 5 μM for PDZ3) in the same TBS buffer and conditions as described above. FP values were then fitted to the general equation: Y=Bottom+(Top−Bottom)/[1[…](10̂^X-logIC50)], where X is the logarithmic value of peptide concentration. Hereby the IC50 value was obtained, which is used to calculate the theoretical competitive inhibition constant, Ki.^5
(§3) A convenient and reliable way to examine interactions between peptide analogues and PDZ domains is by using a fluorescence polarization (FP) assay. The three PDZ domains, PDZ1-3, of PSD-95 were expressed individually as set out above, while PDZ1-2 was also expressed as a tandem construct. […] IC50 values were then converted to Ki values.^5

PDZ2 of PSD-95 = target: T2, PDZ2 of PSD-95 (Homo sapiens, UniProt P78352); assay: FP heterologous competition binding assay; settings: for Ki: FP competition, mean ± SEM, NA = no activity/affinity
T2 construct: PDZ2 (residues 155-249); made in house; host or cells: E. coli BL21-DE3 pLysS
From the text: as §1, §2, §3

[1] = Human blood plasma stability assay; format: in vitro ADME; settings: for half-life at […]: human, plasma, Blood plasma half life (T1/2)
Description: In this assay, the half-life (T1/2) of a compound in blood plasma is measured in vitro, whereby its susceptibility to degradation by proteases, peptidases and general plasma contents is quantified.
Compounds of interest were dissolved in human blood plasma (270 μl; 3H Biomedical, Sweden, cat no 1300-1-P50) to a concentration of 0.25 mM (30 μL of 2.5 mM) and incubated at 37° C. Aliquots (30 μl) were removed at various time intervals (0, 5, 10, 20, 40, 80, 160, 320, 960, 1280, 2550, 4560 and 7240 min) and quenched with 60 μL trichloroacetic acid (aq., 5%). The aliquots were vortexed, and incubated for at least 15 min, at 4° C. prior to centrifugation at 18,000 g for 2 min and the supernatant was analyzed by RP-HPLC to quantify the remaining compound (absorbance at 218 nm).

PDZ1-2 of PSD-95 = target: T3, PDZ1-2 of PSD-95 (Homo sapiens, UniProt P78352); assay: Isothermal titration calorimetry (ITC); format: binding; settings: for Kd: 25° C., PBS pH 7.4, mean ± SEM, read-out: ITC Kd PDZ12
T3 construct: PDZ1-2 (residues 61-249) tandem; made in house; host or cells: E. coli BL21-DE3 pLysS
From the text: This technique (Pierce, M. et al., 1999., Methods, p. 213-221) provides an exact determination of the affinity of a ligand for its target protein, as well as measuring the thermodynamic properties of the interaction, including enthalpy (ΔH), entropy (ΔS) and free energy (ΔG) together with the stoichiometric relationship of ligand binding. In this method, un-labeled ligand is titrated into a solution of un-labeled PDZ protein located in the calorimeter. Heat generated upon protein recognition is measured (ΔH) during the titration of the ligand and the PDZ protein until saturation is achieved, and the heat-exchange upon further ligand addition is negligible. Based on the amount of ligand needed to achieve saturation an affinity constant (Kd) is calculated and in addition ΔH, ΔS, ΔG and stoichiometry are determined.
Calorimetry experiments were performed on a microcalorimeter (Microcal, MA, USA). The ligands were titrated directly into the PDZ solution. All ligands and PDZ proteins were solubilized in PBS buffer (137 mM NaCl, 2.7 mM KCl, 10 mM Na2HPO4, 2 mM KH2PO4, pH 7.4) and when necessary pH was adjusted to 7.4 within 0.02 pH units after solubilization. The concentration of peptide and PDZ in solution was quantified by amino acid analysis. The calorimetry experiments were conducted at 25° C., where the PDZ1-2 concentration was generally adjusted to about 20 μM (200 μL in calorimeter) and the ligand concentration to between 200-2500 μM (injected to the protein as 20×2 μL). Experiments were designed so that c-value (c-value=Ka*[Protein]*n; where Ka is the affinity association constant, [Protein] means protein concentration, and n is the stoichiometry of the reaction) was within 1-1000. The analysed solution was stirred at 1000 rpm, with a reference power of 6 μcal/s. Heats of dilution were initially determined by titrating the ligand into buffer and subtracting these baseline values from the observed “heat values”. The data from each titration experiment were collected by ORIGIN 7.0 (Microcal, MA, USA), which was also used to determine the thermodynamic properties of ligand binding using non-linear least-squares fitting assuming a single-site model.

PDZ3 of PSD-95 = target: T4, PDZ3 of PSD-95 (Homo sapiens, UniProt P78352); assay: FP heterologous competition binding assay; settings: for Ki: FP competition, mean ± SEM, NA = no activity/affinity
T4 construct: PDZ3 (residues 309-401); made in house; host or cells: E. coli BL21-DE3 pLysS
From the text: as §1, §2, §3

PDZ1 of PSD-95 = target: T5, PDZ1 of PSD-95 (Homo sapiens, UniProt P78352); assay: FP heterologous competition binding assay; settings: for Ki: FP competition, mean ± SEM, NA = no activity/affinity
T5 construct: PSD-95 PDZ1 (residues 61-151); made in house; host or cells: E. coli BL21-DE3 pLysS
From the text: as §1, §2, §3

| Ki (PDZ1-2 tandem of PSD-95) [µM] | Ki (PDZ2 of PSD-95) [µM] | half-life at […] [1] [h] | Ki (PDZ3 of PSD-95) [µM] | Ki (PDZ1 of PSD-95) [µM] | Compound | other results |
| --- | --- | --- | --- | --- | --- | --- |
| 1.1 ± 0.07 | 25 ± 0.88 | 2.05 | – | – | CC[C@H](C)[C@H](NC(=O)CCOCCOCCOCCOCCOCCC(=O)N[C@H](C(=O)N[C@@H](C)C(=O)N[C@H](C(=O)N[C@@H](C)C(=O)N[C@H](C(=O)O)C(C)C)[C@@H](C)O)[C@@H](C)CC)C(=O)N[C@@H](C)C(=O)N[C@H](C(=O)N[C@@H](C)C(=O)N[C@H](C(=O)O)C(C)C)[C@@H](C)O [(IATAV)2PEG4 (88), (IATAV)2PEG4] | – |
| 1 ± 0.06 | 13 ± 1.1 | 3.05 | – | – | CC[C@H](C)[C@H](NC(=O)CCOCCOCCOCCOCCOCCOCCOCCOCCOCCOCCOCCOCCOCCC(=O)N[C@H](C(=O)N[C@@H](C)C(=O)N[C@H](C(=O)N[C@@H](C)C(=O)N[C@H](C(=O)O)C(C)C)[C@@H](C)O)[C@@H](C)CC)C(=O)N[C@@H](C)C(=O)N[C@H](C(=O)N[C@@H](C)C(=O)N[C@H](C(=O)O)C(C)C)[C@@H](C)O [(IATAV)2PEG12 (87), (IATAV)2PEG12] | – |
| ~0.1 | – | > 133 | – | – | CC[C@H](C)[C@H](NC(=O)CCOCCOCCOCCOCCOCCC(=O)N[C@H](C(=O)N[C@@H](CCC(=O)O)C(=O)N[C@@H](CO)C(=O)N[C@@H](CC(=O)O)C(=O)N[C@H](C(=O)O)C(C)C)[C@@H](C)CC)C(=O)N[C@@H](CCC(=O)O)C(=O)N[C@@H](CO)C(=O)N[C@@H](CC(=O)O)C(=O)N[C@H](C(=O)O)C(C)C [(IESDV)2PEG4 (78), (IESDV)2PEG4] | Kd (PDZ1-2 of PSD-95): 0.032 ± 0.01 µM; degradation in human blood plasma, in words [1]: no significant degradation could be detected over a time period of 6 days |
| ~0.1 | – | > 133 | – | – | CC[C@H](C)[C@H](NC(=O)CCOCCOCCOCCOCCOCCOCCOCCC(=O)N[C@H](C(=O)N[C@@H](CCC(=O)O)C(=O)N[C@@H](CO)C(=O)N[C@@H](CC(=O)O)C(=O)N[C@H](C(=O)O)C(C)C)[C@@H](C)CC)C(=O)N[C@@H](CCC(=O)O)C(=O)N[C@@H](CO)C(=O)N[C@@H](CC(=O)O)C(=O)N[C@H](C(=O)O)C(C)C [(IESDV)2PEG6 (77), (IESDV)2PEG6] | degradation in human blood plasma, in words [1]: no significant degradation could be detected over a time period of 6 days |
| ~0.1 | 2.6 ± 0.13 | > 133 | – | – | CC[C@H](C)[C@H](NC(=O)CCOCCOCCOCCOCCOCCOCCOCCOCCOCCC(=O)N[C@H](C(=O)N[C@@H](CCC(=O)O)C(=O)N[C@@H](CO)C(=O)N[C@@H](CC(=O)O)C(=O)N[C@H](C(=O)O)C(C)C)[C@@H](C)CC)C(=O)N[C@@H](CCC(=O)O)C(=O)N[C@@H](CO)C(=O)N[C@@H](CC(=O)O)C(=O)N[C@H](C(=O)O)C(C)C [(IESDV)2PEG8 (76), (IESDV)2PEG8] | degradation in human blood plasma, in words [1]: no significant degradation could be detected over a time period of 6 days |
| ~0.1 | 1.1 ± 0.07 | 6.82 | – | – | CC[C@H](C)[C@H](NC(=O)CCOCCOCCOCCOCCOCCC(=O)N[C@H](C(=O)N[C@@H](CCC(=O)O)C(=O)N[C@H](C(=O)N[C@@H](C)C(=O)N[C@H](C(=O)O)C(C)C)[C@@H](C)O)[C@@H](C)CC)C(=O)N[C@@H](CCC(=O)O)C(=O)N[C@H](C(=O)N[C@@H](C)C(=O)N[C@H](C(=O)O)C(C)C)[C@@H](C)O [(IETAV)2PEG4 (83), (IETAV)2PEG4] | fold greater affinity towards PDZ1-2 compared to Tat-NR2B (3) (WT or Tat-NR2B) (PDZ1-2 of PSD-95): about 1000 fold; Kd (PDZ1-2 of PSD-95): 0.011 ± 0.01 µM; fold increase in ligand affinity by dimerization compared to monomeric IETAV (82) (PDZ1-2 of PSD-95; PDZ1-2): 176 fold |
| – | – | – | ≥ 400 | – | CC(C)[C@H](NC(=O)[C@H](C)NC(=O)[C@@H](NC(=O)[C@H](C)N)[C@@H](C)O)C(=O)O [ATAV (68), ATAV] (H-ATAV-OH; C-terminus assumed) | – |
| 45 ± 4.1 | 25 ± 1.6 | – | 2.1 ± 0.15 | 97 ± 18 | CC(C)C[C@H](NC(=O)CNC(=O)[C@H](CO)NC(=O)[C@@H](N)CCCCN)C(=O)N[C@@H](CC(=O)O)C(=O)N[C@H](C(=O)N[C@@H](CCCCN)C(=O)N[C@@H](CC(N)=O)C(=O)N[C@@H](Cc1ccc(O)cc1)C(=O)N[C@@H](CCCCN)C(=O)N[C@@H](CCC(N)=O)C(=O)N[C@H](C(=O)N[C@@H](CO)C(=O)N[C@H](C(=O)O)C(C)C)[C@@H](C)O)[C@@H](C)O [CRIPT (2), reference compound] | – |
| 28 ± 2.9 | 28 ± 0.92 | – | – | 56 ± 2.4 | CC(C)[C@H](NC(=O)[C@H](CC(=O)O)NC(=O)[C@H](CO)NC(=O)[C@@H](N)CCC(=O)O)C(=O)O [ESDV (8), ESDV] (H-ESDV-OH; N-terminus and C-terminus assumed) | fold increase in Ki (loss of affinity) compared to NR2B peptide (1), PDZ2 (PDZ2 of PSD-95): 6.8 fold; fold increase in Ki (loss of affinity) compared to NR2B peptide (1), PDZ1 (PDZ1 of PSD-95): 3.1 fold |
| – | 22 ± 0.92 | – | 260 ± 20 | 29 ± 1.6 | CC(C)[C@H](NC(=O)[C@H](C)NC(=O)[C@@H](NC(=O)[C@@H](N)CCC(=O)O)[C@@H](C)O)C(=O)O [ETAV (51), ETAV] | – |
| 7 ± 0.19 | 4.1 ± 0.17 | – | – | 18 ± 0.92 | KSGYEKLSSIESDV-OH [NR2B (1), reference compound] | affinity to PDZ3, in words (PDZ3 of PSD-95; FP assay): no binding |

| Compound | Ki (PDZ1-2 tandem of PSD-95) [µM] | Ki (PDZ2 of PSD-95) [µM] | half-life at […] [1] [h] | Ki (PDZ3 of PSD-95) [µM] | Ki (PDZ1 of PSD-95) [µM] | other results |
| --- | --- | --- | --- | --- | --- | --- |
| CC(C)[C@H](NC(=O)[C@H](C)NC(=O)[C@@H](NC(=O)[C@H](CCC(=O)O)NCC1CCCCC1)C(C)O)C(=O)O (stereo partly shown) [Compound 55, N-Cyclohexylmethyl-ETAV] | – | – | – | 21 ± 0.64 | 1 ± 0.24 | fold increase in affinity (more potent) compared to NR2B peptide (1), PDZ1 (PDZ1 of PSD-95): ca. 19 fold |
